The source of these data is patent US20150224164A1, “TREATMENT OF AUTISM SPECTRUM DISORDERS USING GLYCYL-L-2-METHYLPROLYL-L-GLUMATIC ACID” (Neuren Pharmaceuticals Limited, priority 2013, published 2015).

One series deals with MeCP2 knock-out mice. Particulars: MeCP2 knock-out model; cited from earlier work.
The test system of series [1] is cortical neurons injured with okadaic acid. Briefly: In vitro neuroprotection, cortical cultures injured with okadaic acid (MTT). The series is classed as cell-based, rat. Particulars: 10 μM; okadaic acid injury; 24 hours incubation; MTT-assay. The method, then: A dam was sacrificed by CO2-treatment, and then was prepared for caesarean section. After surgery, the embryos were removed from their amniotic sacs and decapitated. The heads were placed on ice in DMEM/F12 medium for striatum and PBS+0.65% D(+)-glucose for cortex.
The two cortical hemispheres were carefully removed by spatula from the whole brain with the ventral side facing upside into a PBS+0.65% D(+)-glucose containing petri dish. Forceps were put into the rostral part (near B. olfactorius) of the cortex in order to fix the tissue and two lateral-sagittal oriented cuts were made to remove the […] and entorhinal cortices. […]
The cells were triturated once with a glass Pasteur pipette in 1 ml of Neurobasal/B27 medium and subsequently twice by using a 1 ml insulin syringe with a 22 gauge needle. […] Cells were counted and adjusted to 50,000 cells per 60 μl. […]
To cause toxic injury to neurons, we exposed neurons to 1:100 parts of okadaic acid at concentrations of 30 nM or 100 nM and 0.5 mM 3-nitropropionic acid (for cerebellar microexplants only). […] The survival rate was determined by a colorimetric end-point MTT-assay at 595 nm in a multi-well plate reader. For the cerebellar microexplants four windows (field of 0.65 mm^2) with highest cell density were chosen and cells displaying neurite outgrowth were counted.
On the technique in general: Formazan colour is commonly taken as a measure of viable cells.

Series [2] is described as follows: Pharmacokinetics after intravenous bolus injection. Type of series: in vivo, rat. The procedure:
Adult male Wistar rats weighing between 180 and 240 g were used to determine the pharmacokinetics of GPE and G2MePE. To facilitate intravenous bolus injections and blood sampling, all rats were surgically implanted with an indwelling jugular venous cannula under halothane anesthesia three days before the experiment. Groups of six rats were given a single intravenous bolus injection of either 30 mg/kg GPE or 10 mg/kg G2MePE dissolved in 0.1M succinate buffer (pH 6.5). Blood samples (about 220 μl each) were collected into heparinized tubes containing Sigma protease inhibitor cocktail for mammalian tissues at 10 and 0 min before injection of either GPE or G2MePE, and 1, 2, 4, 8, 16, 32, 64 and 128 min after injection of either GPE or G2MePE. The samples were centrifuged at 3000 g for 15 min at 4° C. and the plasma removed and stored at −80° C. until extraction and assay by either radioimmunoassay (“RIA”) or reverse phase HPLC. The RIA and HPLC methods used were conventional.
The k and half-life (t1/2) were calculated from the slope of the linear regression line in the elimination phase of the semi-logarithmic plot of plasma concentration versus time as: Log C=−kt/2.3+log C0. Results were expressed as mean±standard error.

Regarding `NCC(=O)N1CCC[C@H]1C(=O)N[C@@H](CCC(=O)O)C(=O)O` [GPE, glycyl-L-prolyl-L-glutamic acid, reference compound], the “life span and neuronal function” value in the series with MeCP2 knock-out mice was “prolong life and increase neuronal function”. The compound further registered a neuroprotection in series [1] of 64%. The degradation result in series [2] (in vivo and in vitro) is “rapidly degraded”. In series [2] (single i.v. bolus, GPE 30 mg/kg, G-2-MePE 10 mg/kg), this compound gave a first order rate constant of 0.15 ± 0.014 min⁻¹. Further, the peak plasma concentration in series [2] (single i.v. bolus, GPE 30 mg/kg, G-2-MePE 10 mg/kg, mean±standard error) came out at 40 ± 10.8 µg/mL.
